Results taken from ChEMBL document CHEMBL1133955, “Design and synthesis of new inhibitors of HIV-1 protease dimerization with conformationally constrained templates” (Bioorg Med Chem Lett, 2001).

What was measured:
[1] = biological target: Human immunodeficiency virus type 1 protease (Human immunodeficiency virus 1, UniProt Q72874); test: Inhibitory activity against HIV-1 protease
[2] = biological target: Human immunodeficiency virus type 1 protease (Human immunodeficiency virus 1) (UniProt Q72874); test: Compound was tested for inhibition of HIV-1 protease by a dissociative mechanism
[3] = biological target: Human immunodeficiency virus type 1 protease (Human immunodeficiency virus 1) (UniProt Q72874); test: Compound was tested for inhibition of HIV-1 protease (taken from ZhangPoorman plot)

Row | SMILES | IC50 [1] [µM] | Kid [2] [µM] | Kid [3] [µM]
1 | CC[C@@H](C)[C@H](NC(=O)[C@@H](NC(=O)[C@H](CC(C)C)NC(=O)[C@@H](N)Cc1c[nH]c2ccccc12)[C@H](C)O)C(=O)NCCc1cccc2c1oc1c(CCC(=O)N[C@H](C(=O)N[C@@H](Cc3ccc(O)cc3)C(=O)N[C@@H](CC(N)=O)C(=O)N[C@@H](Cc3ccccc3)C(=O)O)[C@H](C)O)cccc12 | 12 | 5.4 | 
2 | COc1ccc(NC(=O)C(=O)O)cc1C(=O)NNC(=O)OCC1c2ccccc2-c2ccccc21 | 30 |  | 9.1
